Assay results from patent publication US20250002954A1, “Novel Compound, Use Thereof, and Method for Producing Same, and Compound-Containing Composition, Method for Producing 4-Trehalosamine, and Microorganism” (Microbial Chemistry Research Foundation, priority 2021, published 2025).

Assay: Starch aging inhibiting effect, enzyme assay 3 (potato starch gel)
Conditions: final concentration 10% or 15% (w/w), 48 and 96 hours
Method: Starch aging inhibiting effect was determined in a similar manner to the <Enzyme assay 1> except that the “—Preparation of measurement samples—” and “—Determination of starch aging inhibiting effect—” in the <Enzyme assay 1> were changed to the methods below.
The 4-trehalosamine (4TA) obtained in production example 10, and trehalose (TRH), sucrose (SCR), and glycerol (GOL) were each dissolved in water to a final concentration of 10% (w/w) or 15% (w/w), thus preparing aqueous solutions. Into each of the aqueous solutions containing the different sugars or water as control, potato starch (manufactured by Yoshida Pharmaceutical Company Limited) was mixed to a final concentration of 15% (w/w) and suspended uniformly, and the suspension was aliquoted in 33.3 μL volumes to three tubes. […]
Starch aging inhibiting effect was determined in a similar manner to the “—Determination of starch aging inhibiting effect—” of the <Enzyme assay 1> except that measurement of absorbance at 660 nm was changed to measurement of absorbance at 620 nm in the “—Determination of starch aging inhibiting effect—” of the <Enzyme assay 1>, and that quantification (absorbance measurement) of enzyme reaction and sugar was performed for the 0-hour, 48-hour, and 96-hour samples in the quantification (absorbance measurement) of enzyme reaction and sugar. […]

N[C@H]1[C@H](O)[C@@H](O)[C@@H](O[C@H]2O[C@H](CO)[C@@H](O)[C@H](O)[C@H]2O)O[C@@H]1CO [4-trehalosamine]
rate of degradation by β-amylase (starch aging inhibiting effect): significantly high rate of degradation by β-amylase at and after 48 hours compared to the other gels
